Experimental findings from BindingDB's records for doi:10.1128/aac.00737-07 (Duke University Medical Center, 2008) are described below.

A short description of test [1]: Inhibition of HIV1 (isolate YU2) envelope glycoprotein 120-mediated membrane fusion between virus-transfected african green monkey COS cells and human TZM-bl cells by luciferase-based cell-cell fusion assay in absence of IC9564.
Test [2] can be described thus: Inhibition of HIV1 (isolate YU2) envelope glycoprotein 120-mediated membrane fusion between virus-transfected african green monkey COS cells and human TZM-bl cells by luciferase-based cell-cell fusion assay in presence of IC9564.

Molecules are shown by their SMILES. pIC50: −log10 of the molar value.

With `COc1ccnc2[nH]cc(C(=O)C(=O)N3CCN(C(=O)c4ccccc4)C[C@H]3C)c12` [(R)-1-(4-benzoyl-2-methylpiperazin-1-yl)-2-(4-methoxy-1H-pyrrolo[2,3-b]pyridin-3-yl)ethane-1,2-dione], the pIC50 (usually −log10 of the IC50, conventionally taken in molar units) was 6.86 in test [1] and 7.46 in test [2].
